Source: patent publication US20240041898A9, “NEUROSTEROIDS AND ENANTIOMERS THEREOF FOR THE PREVENTION AND TREATMENT OF NEURODEGENERATIVE CONDITIONS” (priority 2019, published 2024)
Several values for one entry are separate records, joined by “and”; a condition that tells them apart may be missing. Equal entries are not always repeated.

Key:
[1] = tested on: retinal ganglion cells (RGCs); assay: Rat in vivo OHT model, NeuN-positive RGC survival in whole mount retina; details: OHT eyes, intravitreal, three weeks after microbead injection; single values
Experimental: (§1) Example 7. Rat in vivo OHT model induced by intracameral injection of microbeads—For induction of ocular hypertension (OHT) in vivo, sterile 6 μm polystyrene microbeads were injected into the anterior chamber of the left eye of each animal using a single-step, sclero-corneal tunnel approach with a 35G nanoneedle (FIG. 4A). […] After stabilization of elevated IOP, animals were randomly divided into 3 groups (non-treated OHT, AlloP injection, and ent-AlloP injection). AlloP and ent-AlloP were administered as a one-time intravitreal injection one week following bead injection. Non-treated OHT animals received sterile vehicle intravitreally. As a further control, vehicle was intravitreally injected 7 days after intracameral administration of 10 μl of PBS. Three weeks after bead injections, IOP was 26.7±3.7 mmHg in non-treated OHT eyes compared to 9.9±0.9 mmHg in control eyes. […]

[2] = tested on: NFL and optic nerves (ON); assay: Rat in vivo OHT model, electron microscopy of AP and DAV in NFL and optic nerve; details: in vivo OHT eyes; for Autophagosomes (AP) in the NFL (FIG. 5M), Total / Degenerative autophagic vacuoles (DAV) in the NFL (FIG. 5N), Total: Total of 10 areas; for Autophagosomes (AP)/25 μm2 in the NFL (FIG. 5M), individual areas 1-10 / Degenerative autophagic vacuoles (DAV)/25 μm2 in the NFL (FIG. 5N), individual areas 1-10 / Autophagosomes (AP)/100 μm2 in the ON (FIG. 5Y), individual areas 1-10 / Degenerative autophagic vacuoles (DAV)/100 μm2 in the ON (FIG. 5Z), individual areas 1-10: single values
Experimental: Example 7. Rat in vivo OHT model induced by intracameral injection of microbeads—For induction of ocular hypertension (OHT) in vivo, sterile 6 μm polystyrene microbeads were injected into the anterior chamber of the left eye of each animal using a single-step, sclero-corneal tunnel approach with a 35G nanoneedle (FIG. 4A). […] After stabilization of elevated IOP, animals were randomly divided into 3 groups (non-treated OHT, AlloP injection, and ent-AlloP injection). AlloP and ent-AlloP were administered as a one-time intravitreal injection one week following bead injection. Non-treated OHT animals received sterile vehicle intravitreally. As a further control, vehicle was intravitreally injected 7 days after intracameral administration of 10 μl of PBS. Three weeks after bead injections, IOP was 26.7±3.7 mmHg in non-treated OHT eyes compared to 9.9±0.9 mmHg in control eyes.
Rat in vivo OHT model—8-week old male Sprague-Dawley rats were deeply anesthetized with an intraperitoneal injection of a mixture of medetomidine hydrochloride (Cat #133-17474, CAS. No 86347-15-1, Wako Pure Chemical Industries Ltd., Osaka, Japan, 0.15 mg/kg), midazolam (Cat #135-13791, CAS. No 58786-99-5, Wako Pure Chemical Industries Ltd., 2 mg/kg), and butorphanol tartrate (Cat #021-19001, CAS. No […], Wako Pure Chemical Industries Ltd., 2.5 mg/kg), and intraocular pressure was increased unilaterally to approximately 35 mmHg, by intracameral injection of polystyrene microbeads using a single-step, sclero-corneal tunnel approach with a 35G-gauge nanoneedle (#LNAN-3505LM, Saito Medical Instruments Inc., Tokyo, Japan) connected to 100 μl WPI Nanofil 100 microsyringe (World Precision Instruments, Inc., Sarasota, FL). Sterile 6 μm polystyrene microbeads in a 1×10^6 microbeads/ml solution (Molecular Probes, Eugene, OR, USA) were concentrated to obtain a 1×10^7 microbeads/ml solution. This solution was suspended in PBS. The microbeads suspended in PBS were aspirated into a 100 μl Hamilton microsyringe and injected into the anterior chamber of […] of each animal. 10 μl of the microbead suspension were injected without contacting the cornea or iris with the needle. After stabilization of the elevated IOP, animals were randomly divided into 3 groups (non-treated OHT, AlloP injection, and ent-AlloP injection). AlloP and ent-AlloP were dissolved in 20% w/v (2-Hydroxypropyl)-β-cyclodextrin (2HBCD) in saline solution at concentration of 0.05% (w/v) solution, and injected into the vitreous chamber in a total volume of 1 μl using a Hamilton syringe adapted with a 35 G-gauge nanoneedle 1 week after the beads were injected under halothane inhalation anesthesia. OHT animals (vehicle control) received sterile 1 μl 20% (w/v) 2HBCD with PBS. As a further control, 1 μl 20% (w/v) 2HBCD was intravitreally injected 7 days after intracameral injection with 10 μl of PBS. The number of animals used in each experiment is indicated in the corresponding method. […] Ocular hypertension was monitored preoperatively, and at 3 days, 1 week, 2 weeks or 3 weeks after the beads were injected. IOP was measured using a laboratory tonometer (TonoLab, Icare, Finland).
Electron Microscopy—Retinal specimens were trimmed to a smaller size, and ultrathin sections (75 nm) were cut with a diamond knife and suspended over formvar-coated slot grids (1×2 mm opening). The sections were stained with uranyl acetate and lead citrate and viewed in a transmission electron microscope (H-7650, Hitachi High-Technologies Corp., Tokyo, Japan). Numbers of AP and DAV inside NFLs and axons were determined as the sum in 10 different areas of 25 μm^2 each from each sample. The analysis was performed in three eyes per experimental condition.

GABAA receptors = details: cited from earlier work
p62 = assay: Rat in vivo OHT model, Western blot of p62; details: in vivo OHT eyes, 3 weeks after microbead injection; relative units, control = 1.00; single values
Experimental: as §1

SMILES	RGC Survival (FIG. 4N), number of NeuN-positive cells, individual 1-5 [1]	Degenerative autophagic vacuoles (DAV)/25 μm2 in the NFL (FIG. 5N), Average ([2]; intravitreal, Average of 10)	Autophagosomes (AP) in the NFL (FIG. 5M), Total ([2]; intravitreal)	Degenerative autophagic vacuoles (DAV) in the NFL (FIG. 5N), Total ([2]; intravitreal)	Autophagosomes (AP)/25 μm2 in the NFL (FIG. 5M), individual areas 1-10 ([2]; intravitreal)	Degenerative autophagic vacuoles (DAV)/25 μm2 in the NFL (FIG. 5N), individual areas 1-10 ([2]; intravitreal)	Autophagosomes (AP)/100 μm2 in the ON (FIG. 5Y), Average ([2]; optic nerve, Average of 10)	Degenerative autophagic vacuoles (DAV)/100 μm2 in the ON (FIG. 5Z), Average ([2]; optic nerve, Average of 10)	Autophagosomes (AP)/100 μm2 in the ON (FIG. 5Y), individual areas 1-10 ([2]; optic nerve)	Degenerative autophagic vacuoles (DAV)/100 μm2 in the ON (FIG. 5Z), individual areas 1-10 ([2]; optic nerve)	action on GABAA receptors (GABAA receptors)	p62 expression (FIG. 6D), individual experiments 1-4 (p62)
CC(=O)[C@H]1CC[C@H]2[C@@H]3CC[C@H]4C[C@H](O)CC[C@]4(C)[C@H]3CC[C@]12C [AlloP, allopregnanolone]	2200 per square millimeter and 2240 per square millimeter and 1940 per square millimeter and 1860 per square millimeter and 1800 per square millimeter	0.5 /25 μm2	12	5	2 /25 μm2 (2×) and 1 /25 μm2 (8×)	0 /25 μm2 (7×) and 2 /25 μm2 (2×) and 1 /25 μm2	1.1 /100 μm2	0.0 /100 μm2	1 /100 μm2 (9×) and 2 /100 μm2	0 /100 μm2	strong enhancer	1.73 and 1.82 and 2.90 and 2.53
CC(=O)[C@@H]1CC[C@@H]2[C@H]3CC[C@@H]4C[C@@H](O)CC[C@@]4(C)[C@@H]3CC[C@]21C [ent-AlloP, ent-allopregnanolone]	2060 per square millimeter and 2260 per square millimeter and 2500 per square millimeter and 2200 per square millimeter and 2460 per square millimeter		1	22	0 /25 μm2 (9×) and 1 /25 μm2	1 /25 μm2 and 2 /25 μm2 (5×) and 4 /25 μm2 (2×) and 3 /25 μm2 and 0 /25 μm2			0 /100 μm2 (9×) and 1 /100 μm2	0 /100 μm2 and 1 /100 μm2 (8×) and 2 /100 μm2	weak actions	0.92 and 0.91 and 1.00 and 1.61
